Experimental data: article PMC10341573, “Design, Synthesis, and Biological Evaluation of Novel Quinazolin-4(3H)-One-Based Histone Deacetylase 6 (HDAC6) Inhibitors for Anticancer Activity” (International Journal of Molecular Sciences, 2023)

Assays:
acetyl-H3 = assay: Western blot of acetyl-H3 in MCF7 and HCT-116 cells; type: cell-based, human; settings: compared to untreated control
MCF7 cells [1] = assay: Cell-cycle analysis by flow cytometry; type: cell-based, human
Protocol: Cell-cycle distribution analysis was carried out further to evaluate the effect of 5c on HDAC inhibition, as HDCA inhibitors are mainly known to target genes regulating the cell cycle. The 5c-treated MCF7 cells were subjected to cell-cycle analysis by flow cytometry.
Cell-cycle analysis was carried out using a cell-cycle analysis kit (Sigma-Aldrich, MAK344) according to the protocol given by the manufacturer. MCF7 cells were treated with DMSO or 0.1 μM and 1 μM concentrations of compound 5c and incubated for 48 h. Cells were then trypsinized and pelleted down. The pellets were washed with 1× cell-cycle buffer and fixed in ice-cold 70% ethanol for 1 h at 4 °C. The fixated cells were treated with ribonuclease A (RNase A) and stained with PI at room temperature for 30 min. Analysis was carried out using FlowJo 10.7.2..

HEK 293 = assay: MTT cell proliferation assay, HEK 293; type: cell-based, human; settings: Homo sapiens, HEK293; MTT, 72 h; mean ± SD, triplicate; read-out: IC50 ± SD HEK 293
MCF7 and HCT-116 cells [2] = assay: Clonogenic assay; type: cell-based, human; settings: 12–14 days
Protocol: To evaluate the effect of compound 5c on the cell survival of MCF7 and HCT-116 cells, a clonogenic assay was performed. Colony formation of MCF7 and HCT-116 cells was inhibited by compound 5c in a dose-dependent manner, compared to the control cells treated with DMSO (Figure 11).
MCF7 and HCT-116 cells were seeded in a six-well culture plate at a density of 500 cells/well. After cells adhered completely, they were incubated in the culture medium with DMSO, 0.1 μM 5c, and 1 μM 5c. The medium, along with the treatment, was replenished every 3 days for 12–14 days. The colonies formed were fixed with a 3:1 ratio of methanol and glacial acetic acid for 10 min. The wells were then washed with 1× PBS, and cells were stained with 0.5% v/v crystal violet solution for 10 min [55]. Excess stain was washed off in running water, and images were taken after proper drying. Colonies were counted visually or using ImageJ software, NIH (Version 1.53K). The stain taken up by the colonies was dissolved in 0.1% SDS, and absorbance was read at 540 nm. Graphs were plotted using GraphPad Prism 8.0.2.

HDAC4 = biological target: T1, HDAC4 (Homo sapiens, UniProt P56524); assay: HDAC enzyme activity assay (fluorogenic, Boc-Lys(trifluoroacetyl)-AMC), HDAC4; type: biochemical; settings: class IIa HDAC4; mean ± SD, triplicate
T1 construct: catalytic domain of HDAC4 (T648-T1057, full length: UniProt P56524); made in house; host or cells: E. coli BL21(DE3), pET14b vector

MCF7 cells [3] = assay: Annexin V–FITC/PI apoptosis assay by flow cytometry; type: cell-based, human; settings: MCF7, 0.1 and 1 μM, 24 h
Protocol: The efficacy of compound 5c to induce apoptosis was determined by annexin V–FITC/PI assay using flow cytometry. MCF7 cells were treated with two different concentrations of 5c as indicated, and the percentages of cells in the apoptotic and necrotic stage were analyzed, as depicted in Figure 8.
The apoptosis assay was performed using an annexin V–FITC Apoptosis detection kit (Sigma-Aldrich, APOAF) according to the manufacturer’s instructions. Cells were harvested, and 0.1 × 10^6 cells were seeded in a six-well cell culture plate and allowed to adhere followed by treatment with DMSO as the control and compound 5c at 0.1 μM and 1 μM concentrations for 24 h. The cells were trypsinized, pelleted down, and resuspended in the 1× buffer provided. The cells were stained using annexin V–FITC/PI and analyzed immediately using flow cytometry. Further analysis and plotting of graphs were conducted using Flowjo 7.6 [53].

acetyl α-tubulin = assay: Western blot of acetyl α-tubulin in MCF7 and HCT-116 cells; type: cell-based, human; settings: 24 h
Protocol: HDAC6 plays a crucial role in chromatin modulation and deacetylation of α-tubulin, contributing to the expression of oncogenes driving tumorigenesis. Over time, numerous studies have shown HDAC inhibitors (HDACi) as potential anticancer therapeutics. The HDAC6-inhibitory effect of compound 5c was evaluated by analyzing the protein level expression of acetyl α-tubulin in MCF7 and HCT-116 cells treated with 5c by Western blotting.
(§1) On the basis of the results obtained from the cell proliferation assay, further experiments were conducted on MCF7 and HCT-116 cells treated with compound 5c. The cells were harvested, and 0.1 × 10^6 cells were seeded in a 12-well cell culture plate and allowed to adhere properly. The cells were then incubated with 0.1 μM and 1 μM concentrations of compound 5c for 24 h. Cells were pelleted in 1× PBS and lysed using ice-cold RIPA buffer. The protein concentration of the lysate was quantified using the Bradford assay and an equal concentration of sample proteins was run on 12% SDS-PAGE and transferred onto 0.45 μm PVDF membrane (Millipore (St. Louis, MO, USA), Immobilon IPVH00010). […]

cleaved PARP = assay: Western blot of cleaved PARP; type: cell-based, human; settings: MCF7 and HCT-116 cells, compared to untreated cells
Text: (§2) The control had intact nuclei, as depicted by the green fluorescence due to AO binding to dsDNA, in contrast to the apoptotic nuclei of 5c-treated cells depicted by orange fluorescence due to AO staining of ssDNA and RNA. This observation was supported by the protein expression of cleaved poly (ADP-ribose) polymerase (PARP), which represents the degree of apoptosis in cells, as shown in Figure 9B. […] Acridine orange (AO) staining can also be influenced by autophagosomal pH.
as §1

HCT116 = assay: MTT cell proliferation assay, HCT116; type: cell-based, human; settings: Homo sapiens, HCT-116; MTT, 72 h; mean ± SD, triplicate; read-out: IC50 ± SD HCT116
MCF7 and HCT-116 cells [4] = assay: Acridine orange staining and fluorescence imaging; type: cell-based, human; settings: 48 h
Text: as §2

T1 sequence (P56524 648-1057): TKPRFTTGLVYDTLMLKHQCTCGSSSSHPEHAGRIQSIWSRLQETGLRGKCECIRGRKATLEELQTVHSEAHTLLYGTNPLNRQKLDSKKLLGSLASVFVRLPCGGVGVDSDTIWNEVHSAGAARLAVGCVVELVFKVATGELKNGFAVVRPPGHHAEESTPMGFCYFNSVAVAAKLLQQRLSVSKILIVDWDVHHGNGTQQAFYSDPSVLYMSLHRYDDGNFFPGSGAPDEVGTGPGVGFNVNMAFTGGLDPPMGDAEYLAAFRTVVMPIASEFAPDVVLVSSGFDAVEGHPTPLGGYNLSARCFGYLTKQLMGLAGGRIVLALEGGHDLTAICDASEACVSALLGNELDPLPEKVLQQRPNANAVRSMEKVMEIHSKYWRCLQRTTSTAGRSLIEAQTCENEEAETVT

Cc1ccc(-n2c(SCc3ccc(C(=O)NO)cc3)nc3ccccc3c2=O)cc1 [Compound 5c, N-hydroxy-4-(((4-oxo-3-(p-tolyl)-3,4-dihydroquinazolin-2-yl)thio)methyl)benzamide]
acetylation of H3 (acetyl-H3): increase in acetylation of H3, but only at a higher concentration
cell population in G2/M phase (MCF7 cells [1]; MCF7, 0.1 μM, 48 h): significant increase
cell population in the G1 and S phases (MCF7 cells [1]; MCF7, 0.1 μM, 48 h): slight reduction
effect on cells at 1 μM (MCF7 cells [1]; MCF7, 1 μM): necrosis and cell death
IC50 (HEK 293): 35.1 ± 18.7 µM
number of colonies (MCF7 and HCT-116 cells [2]; MCF7 and HCT-116, 0.1 μM): significantly reduced
cell anchorage and growth (MCF7 and HCT-116 cells [2]; MCF7 and HCT-116, 1 μM): almost completely arrested
IC50 (HDAC4): 0.72 ± 0.21 µM
state of cells with increase in concentration (MCF7 cells [3]): late apoptosis and necrosis
concentration at which heightened acetylation of α-tubulin starts (acetyl α-tubulin): 0.1 to 1 µM
protein expression of cleaved PARP (cleaved PARP): significantly higher
IC50 (HCT116): 12.4 ± 1.41 µM
apoptosis by acridine orange staining (MCF7 and HCT-116 cells [4]): evidential apoptosis
